The values below are quoted from earlier work in US20200360292A1, “OIL-SOLUBLE DRUG CONTAINING COMPOSITIONS AND METHODS OF USE THEREOF” (priority 2019, published 2020).

The structures appear in SMILES notation.

For this series the following is noted: inhalation.

Consider `CCCCCc1cc(O)c2c(c1)OC(C)(C)[C@@H]1CCC(C)=C[C@@H]21` [THC, Δ9-tetrahydrocannabinol], for which the “Time to maximum plasma concentration” value was “within minutes”.
